Measurements published in patent publication US9950074B2, “Composition and delivery vehicle for active agents and methods therefor” (Georg-August-Universität Göttingen Stiftung Öffenlichen …, priority 2012, dated 2018).

Assays:
[1] = target: reduced folate carrier (RFC, SLC19A1) (Homo sapiens, UniProt P41440); conditions: read-out: influx Km of the RFC; cited from earlier work
[2] = system: primary rat choroids plexus epithelial cells; conditions: read-out: Km of FRα-dependent uptake; low extracellular folate concentrations; cited from earlier work
[3] = system: Z310 cells stably expressing FRα; test: [3H]5MTHF uptake with transporter inhibitors; type: cell-based, rat; conditions: 12.5 nM [3H]5MTHF, 1 hour at 37° C.
Description: Z310 cells stably expressing FRα were incubated with 12.5 nM [^3H]5MTHF alone or together with TC, MTX, PAH, probenecid and digoxin for 1 hour at 37° C. Subsequently, cells were lysed and intracellular radioactivity was measured.
We performed additional experiments to evaluate FRα-independent transport processes in Z310 cells at physiological MTHF concentration (12.5 nM). A couple of organic anion transporters are known to be expressed in Z310 cells (Halwachs et al., 2011). […] At this concentration MTX is known to block FR-mediated MTHF binding as well.

[4] = system: Z310 cells stably transfected with FRα; test: apical release (shedding) of [3H]5MTHF from filter-grown Z310 cells; type: cell-based; conditions: FRα-transfected Z310 cells loaded 1 h with [3H]5MTHF; 7 μM monensin or 0.5 mg/ml rat transferrin
Description: After three washing steps, cells were incubated with fresh RPMI medium containing either 7 μM monensin (Mon) or 0.5 mg/ml rat transferrin (Trans) or contained no supplementation. Samples from the apical and basolateral compartment were removed at the indicated time points. Subsequently, cells were lysed and radioactivity was measured in medium samples and cell lysates. Data are means±s.e.m. of three independent experiments.
For 5MTHF uptake and transport measurements in Z310 cells, 4.2*104 cells were seeded in laminin coated transwell culture plates (0.3 cm2 growth area, 0.4 μm pore size) in folate-free RPMI medium. To test the barrier function, dye permeability assays with lucifer yellow were performed. Cells were used for experiments when the permeability was below 1% per hour. […] Radioactivity in medium samples and cell lysates was measured in a liquid scintillation spectrometer.
FRα-transfected or vector-transfected Z310 cells were grown in a two chamber transwell system and [^3H]5MTHF was either given into the basolateral or apical compartment. After a 1 h incubation with [^3H]5MTHF the medium was replaced by fresh medium and the time-dependent emergence of [^3H]5MTHF in both compartments was detected.

[5] = system: primary porcine choroid plexus epithelial cells (PCPEC); test: apical transport of 5MTHF in primary PCPECs; type: cell-based; conditions: PCPEC loaded with 25 nM [3H]5MTHF for 24 hours; 7 μM monensin
Description: Filter-grown PCPECs were loaded with 25 nM [^3H]5MTHF for 24 hours. Cells were then incubated with 7 μM monensin or left untreated. Radioactivity from medium samples was measured at the indicated time points. […] Data are means±s.e.m. of two independent experiments, each done in triplicate.
Porcine choroid plexus epithelial cells (PCPECs) were prepared basically as described previously (Hakvoort et al., 1998: J Neurochem 71, 1141-1150). Isolated PCPECs were seeded in laminin-coated transwell culture plates (0.4 μm pore size, Costar, Cambridge, Mass.) with a diameter of 12 mm using a seeding density of 20 mg wet tissue/cm2. The cell culture medium (DMEM-Ham's F-12, Biochrom, Berlin, Germany) was supplemented with 10% fetal calf serum, 4 mM glutamine, 5 μg/ml insulin, 100 U/mL penicillin and 100 μg/mL streptomycin. Cytosine arabinoside (20 μM) was added to suppress the growth of contaminating cells. After reaching confluence at days in vitro (DIV) 8, growth medium was replaced by serum-free culture medium (SFM) to support cell differentiation and improve barrier function. At DIV 10, the medium was replaced by folate-free RPMI medium (Invitrogen) without serum.
Filter-grown PCPEC were loaded with 25 nM [^3H]5MTHF for 24 hours. Subsequently, medium was changed and cells were treated with 7 μM monensin or left untreated.

[6] = system: primary mixed cortical cultures; test: internalization assay in primary mixed cortical cultures; type: cell-based, neonatal mice; conditions: 2 hours at 37° C.
Description: Disassociated neonatal cortices from postnatal day 0-2 mice were cultured in DMEM supplemented with 10% fetal calf serum, 1% GlutaMAX (Invitrogen), 100 U/mL penicillin and 100 μg/mL streptomycin on laminin- and poly-L-lysin-coated coverslips at 37° C. in 5% CO2. Medium was changed every 3-4 days. At DIV 7-14, mixed cortical cultures consisting of oligodendrocytes, cortical neurons and microglia on an astrocyte monolayer were obtained.
Mixed cortical cultures were obtained form neonatal mice and immediately plated on coverslips and incubated in the respective growth medium. Before the internalization assay, exosomes were purified from Z310 cells, stably transfected with FRα or vector and labelled with PKH26 and FA-FITC as described above. The uptake was performed by incubating the cell cultures with exosome dilutions for 2 hours at 37° C. and 5% CO2. Cells were then fixed, permeabilized and stained with the respective antibodies for immunofluorescence analysis.
We have unexpectedly disclosed FRα as exosomal cargo in the CSF. To further understand the biological function of this transport mechanism we injected exosomes derived from FRα-transfected or vector-transfected Z310 cells into the lateral ventricle of C57BL/6 mice. […] After incubating the cells for 2 hours at 37° C., cells were fixed and analyzed by immunofluorescence microscopy.

Sequence of reduced folate carrier (RFC, SLC19A1) (P41440 whole entry): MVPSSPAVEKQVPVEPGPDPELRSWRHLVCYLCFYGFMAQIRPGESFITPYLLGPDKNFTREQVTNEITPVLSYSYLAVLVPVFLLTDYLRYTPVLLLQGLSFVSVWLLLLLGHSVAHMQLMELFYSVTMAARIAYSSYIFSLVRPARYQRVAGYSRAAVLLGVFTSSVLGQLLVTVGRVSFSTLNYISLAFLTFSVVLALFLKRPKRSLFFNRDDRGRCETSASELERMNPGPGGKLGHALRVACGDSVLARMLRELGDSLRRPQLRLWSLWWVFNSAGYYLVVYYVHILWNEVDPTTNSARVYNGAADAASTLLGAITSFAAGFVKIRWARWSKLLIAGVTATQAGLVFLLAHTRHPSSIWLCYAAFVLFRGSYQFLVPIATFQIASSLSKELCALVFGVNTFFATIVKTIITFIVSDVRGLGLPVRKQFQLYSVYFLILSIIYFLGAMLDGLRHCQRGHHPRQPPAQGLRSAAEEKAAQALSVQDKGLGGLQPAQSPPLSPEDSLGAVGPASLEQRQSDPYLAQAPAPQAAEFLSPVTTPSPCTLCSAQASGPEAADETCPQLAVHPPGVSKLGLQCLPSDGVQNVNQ

CN1c2c(nc(N)[nH]c2=O)NCC1CNc1ccc(C(=O)N[C@@H](CCC(=O)O)C(=O)O)cc1 (some centres unmarked) [5MTHF, 5-methyltetrahydrofolate]
Km [1]: 2 to 7 µM
Km [2]: ~0.0095 µM

CN(Cc1cnc2nc(N)nc(N)c2n1)c1ccc(C(=O)N[C@@H](CCC(=O)O)C(=O)O)cc1 [MTX, methotrexate]
effect on uptake of [3H]5MTHF ([3]; inhibitor at 10 μM): significantly reduced 5MTHF uptake

C[C@H]1O[C@@H](O[C@H]2[C@@H](O)C[C@H](O[C@H]3[C@@H](O)C[C@H](O[C@H]4CC[C@@]5(C)[C@H](CC[C@@H]6[C@@H]5C[C@@H](O)[C@]5(C)[C@@H](C7=CC(=O)OC7)CC[C@]65O)C4)O[C@@H]3C)O[C@@H]2C)C[C@H](O)[C@@H]1O [digoxin]
effect on uptake of [3H]5MTHF [3]: none of the inhibitors reduced the uptake

CC[C@@]1([C@@H]2O[C@@H]([C@H]3O[C@@](O)(CO)[C@H](C)C[C@@H]3C)C[C@@H]2C)CC[C@H]([C@]2(C)CC[C@]3(C[C@H](O)[C@@H](C)[C@@H]([C@@H](C)[C@@H](OC)[C@H](C)C(=O)O)O3)O2)O1 [monensin]
increase of apical shedding of [3H]5MTHF [4]: 70%
enhancement of apical accumulation of [3H]5MTHF [5]: 33%

Nc1ccc(C(=O)NCC(=O)O)cc1 [p-aminohippuric acid]
effect on uptake of [3H]5MTHF [3]: none of the inhibitors reduced the uptake

CCCN(CCC)S(=O)(=O)c1ccc(C(=O)O)cc1 [probenecid]
effect on uptake of [3H]5MTHF [3]: none of the inhibitors reduced the uptake

Folic acid conjugated to fluorescein isothiocyanate [FA-FITC]
delivery of FA-FITC to cells ([6]; combined with FRα-positive exosomes): delivered to astrocytes
internalization of FA-FITC by cells ([6]; free FA-FITC without exosomes): none of the cell types internalized free FA-FITC

B1: transferrin: rat transferrin (Rockland), known to induce exosome release from cells (protein, UniProt P12346 20-698, looked up)
Serotransferrin: VPDKTVKWCAVSEHENTKCISFRDHMKTVLPADGPRLACVKKTSYQDCIKAISGGEADAITLDGGWVYDAGLTPNNLKPVAAEFYGSLEHPQTHYLAVAVVKKGTDFQLNQLQGKKSCHTGLGRSAGWIIPIGLLFCNLPEPRKPLEKAVASFFSGSCVPCADPVAFPQLCQLCPGCGCSPTQPFFGYVGAFKCLRDGGGDVAFVKHTTIFEVLPQKADRDQYELLCLDNTRKPVDQYEDCYLARIPSHAVVARNGDGKEDLIWEILKVAQEHFGKGKSKDFQLFGSPLGKDLLFKDSAFGLLRVPPRMDYRLYLGHSYVTAIRNQREGVCPEGSIDSAPVKWCALSHQERAKCDEWSVSSNGQIECESAESTEDCIDKIVNGEADAMSLDGGHAYIAGQCGLVPVMAENYDISSCTNPQSDVFPKGYYAVAVVKASDSSINWNNLKGKKSCHTGVDRTAGWNIPMGLLFSRINHCKFDEFFSQGCAPGYKKNSTLCDLCIGPAKCAPNNREGYNGYTGAFQCLVEKGDVAFVKHQTVLENTNGKNTAAWAKDLKQEDFQLLCPDGTKKPVTEFATCHLAQAPNHVVVSRKEKAARVSTVLTAQKDLFWKGDKDCTGNFCLFRSSTKDLLFRDDTKCLTKLPEGTTYEEYLGAEYLQAVGNIRKCSTSRLLEACTFHKS
increase of apical shedding of [3H]5MTHF [4]: 36%
